Experimental data reported in patent publication EP4810052A2, “HCRHR2 SELECTIVE POLYPEPTIDES” (Gubra A/S, priority 2023, dated 2026).
“Also recorded” adds a separate entry of the source. Starred links: 1 amine or outer side, 2 acyl side, 3 side chain; linkers in the order of their positions; H or OH if unused. Non-standard residues stand in square brackets, D forms with d. Residues, ends and D or L forms follow the SMILES beside them. Groups on a side chain read outwards from the residue. *: point of attachment. C20 diacid = O=C(O)CCCCCCCCCCCCCCCCCCC(=O)*; γGlu = O=C(O)[C@H](CCC(=O)[*:2])N[*:1]; NMeI = CC[C@H](C)[C@H](NC)C(=O)O; Nle = CCCC[C@H](N)C(=O)O; AEEA = NCCOCCOCC(=O)O; Aib = CC(C)(N)C(=O)O

Legend:
[1] = target: T1, hCRHR2a (Homo sapiens, UniProt Q13324); assay: cAMP potency, transiently transfected CHO-K1 cells, hCRHR2a; format: cell-based; details: transiently transfected CHO-K1, average n=3; read-out: Transient cell system EC50 (nM) hCRHR 2a
T1 construct: DYK (FLAG); host or cells: CHO-K1, transiently transfected
T1 sequence (Q13324 1-411): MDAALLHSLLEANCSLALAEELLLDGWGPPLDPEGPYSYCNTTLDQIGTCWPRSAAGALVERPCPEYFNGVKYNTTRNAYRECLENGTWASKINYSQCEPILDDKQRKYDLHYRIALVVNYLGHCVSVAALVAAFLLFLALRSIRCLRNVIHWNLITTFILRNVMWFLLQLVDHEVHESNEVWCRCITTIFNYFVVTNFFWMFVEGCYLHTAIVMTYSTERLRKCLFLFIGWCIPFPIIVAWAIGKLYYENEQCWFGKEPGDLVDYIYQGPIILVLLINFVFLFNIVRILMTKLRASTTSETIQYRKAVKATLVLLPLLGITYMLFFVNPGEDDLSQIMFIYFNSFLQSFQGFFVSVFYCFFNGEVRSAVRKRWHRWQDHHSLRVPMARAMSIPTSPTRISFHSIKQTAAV

[2] = Dynamic Light Scattering (DLS) of peptide oligomerisation/particle formation; format: physicochemical; details: average of three replica
Method in brief: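 Peptides were dissolved at 2000 µM in 50 mM phosphate, adjusted to pH 7.5 and 0.2 µm-filtered. Samples were incubated at 40 °C with 700 rpm shaking and measured by DLS in triplicate at time zero and after five days. Hydrodynamic radius and polydispersity came from cumulant analysis assuming one species.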

[3] = Body mass and body fat content in mouse model of diet-induced obesity (DIO); format: in vivo; details: DIO mice; for relative body weight: 28 days, compared to vehicle; for Blood HbA1c / M. Gastrocnemius / M. Soleus / Body weight at termination / Fat mass change from baseline / Lean mass change from baseline / Relative body weight change at termination: Table 17 study; for Body weight at termination / Fat mass change from baseline / Lean mass change from baseline / Relative body weight change at termination: ± SEM
Method in brief: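 Male C57BL/6JRj mice on 60% kcal fat diet for 22-23 weeks, dosed subcutaneously once daily for 30-32 days at 10–100 nmol/kg versus vehicle. Body weight recorded daily to day 28, body composition by EchoMRI on day 26; Dunnett's test versus vehicle.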

[4] = target: T2, mCRHR2 (Mus musculus, UniProt Q60748); assay: cAMP potency, transiently transfected CHO-K1 cells, mCRHR2; format: cell-based; details: transiently transfected CHO-K1, average n=3; read-out: Transient cell system EC50 (nM) mCRH R2
T2 construct: DYK (FLAG); host or cells: CHO-K1, transiently transfected
Experimental: Selected peptides were tested for potency on different species (mouse, rat, porcine) using transiently transfected CHO-K1 cells using the general procedure.

[5] = Size exclusion chromatography for high molecular weight products (HMWP); format: physicochemical; details: for HMWP formation (SEC analysis) T14-T0 (%): 14 days; for HMWP formation (SEC analysis) T28-T0 (%): 28 days
Experimental: Dissolved samples were incubated for at least 2 h at room temperature on a rocking table. The main peak purity at time zero (T0) was determined using reversed phase chromatography. The samples were incubated at 40°C for 14 days (T14) and 28 days (T28). The samples were analyzed with reversed phase chromatography and size exclusion chromatography.
Size exclusion chromatography (SEC) was used as an analysis for the formation of high molecular weight products (HMWP, covalent dimers, trimers etc.,). SEC analyses was performed on Thermo Dionex Ultimate UHPLC system with UV detection at 215 nm) equipped with a SEC column (Waters BEH 125Å, 1.7 µm, 300mm x 4.6). Analysis was performed by isocratic elution using 60% buffer B (0.1% TFA in 5:95 H2O: acetonitrile) in buffer A (0.1% TFA in 95:5 H2O: acetonitrile) at a column temperature of 60° C over 20 min. Flowrate was 0.3 mL/min.
Chromatograms were integrated as HMWP (all peaks eluting before the main peak), main peak (assuming this is monomeric peptide) and if relevant LMWP (low molecular weight products, all peaks eluting after main peak). The amount of HMWP was reported as area relative to total area in percent.

[6] = T0, time zero after sample preparation
[7] = T5, five days incubation at 40°C with continuous shaking

T2 sequence (Q60748 1-431 isoform Q60748-2): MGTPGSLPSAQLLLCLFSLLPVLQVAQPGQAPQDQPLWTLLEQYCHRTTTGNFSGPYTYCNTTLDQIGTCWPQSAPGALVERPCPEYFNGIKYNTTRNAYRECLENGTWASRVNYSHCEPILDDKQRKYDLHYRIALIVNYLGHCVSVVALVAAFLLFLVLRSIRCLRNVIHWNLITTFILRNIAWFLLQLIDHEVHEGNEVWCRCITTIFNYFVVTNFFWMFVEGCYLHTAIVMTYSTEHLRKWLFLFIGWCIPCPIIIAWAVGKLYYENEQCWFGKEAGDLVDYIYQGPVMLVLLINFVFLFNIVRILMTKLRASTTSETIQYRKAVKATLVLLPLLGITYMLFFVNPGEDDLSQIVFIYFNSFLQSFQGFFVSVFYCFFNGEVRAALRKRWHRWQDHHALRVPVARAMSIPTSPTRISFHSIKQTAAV

Structure (SMILES)	EC50 [1] [nM]	PD (%) [2, 6] [%]	Rh (nm) [2, 6] [nm]	PD (%) [2, 7] [%]	Rh (nm) [2, 7] [nm]	relative body weight [3]	Blood HbA1c ([3]; 10 nmol/kg) [%]	M. Gastrocnemius ([3]; 10 nmol/kg) [g]	M. Soleus ([3]; 10 nmol/kg) [g]	Body weight at termination ([3]; 10 nmol/kg) [g]	Fat mass change from baseline ([3]; 10 nmol/kg) [g]	Lean mass change from baseline ([3]; 10 nmol/kg) [g]	Relative body weight change at termination ([3]; 10 nmol/kg) [%]	Blood HbA1c ([3]; 30 nmol/kg) [%]	M. Gastrocnemius ([3]; 30 nmol/kg) [g]	M. Soleus ([3]; 30 nmol/kg) [g]	Body weight at termination ([3]; 30 nmol/kg) [g]	Fat mass change from baseline ([3]; 30 nmol/kg) [g]	Lean mass change from baseline ([3]; 30 nmol/kg) [g]	Relative body weight change at termination ([3]; 30 nmol/kg) [%]	further results
CC[C@H](C)[C@H](NC)C(=O)N[C@H](C(=O)N[C@@H](CC(C)C)C(=O)N[C@@H](CO)C(=O)N[C@@H](CC(C)C)C(=O)N[C@@H](CC(=O)O)C(=O)N[C@H](C(=O)N1CCC[C@H]1C(=O)N[C@H](C(=O)NCC(=O)N[C@@H](CC(C)C)C(=O)N[C@@H](CC(C)C)C(=O)N[C@@H](CCC(N)=O)C(=O)N[C@H](C(=O)N[C@@H](CC(C)C)C(=O)N[C@@H](CC(C)C)C(=O)N[C@@H](CCC(=O)O)C(=O)N[C@@H](CCC(N)=O)C(=O)N[C@@H](C)C(=O)N[C@@H](CCCNC(=N)N)C(=O)N[C@@H](C)C(=O)N[C@@H](CCCNC(=N)N)C(=O)N[C@@H](C)C(=O)N[C@@H](C)C(=O)N[C@@H](CCCNC(=N)N)C(=O)N[C@@H](CCC(=O)O)C(=O)N[C@@H](CCC(N)=O)C(=O)N[C@@H](C)C(=O)N[C@@H](CCCCNC(=O)COCCOCCNC(=O)COCCOCCNC(=O)CC[C@H](NC(=O)CC[C@H](NC(=O)CCCCCCCCCCCCCCCCCCC(=O)O)C(=O)O)C(=O)O)C(=O)N[C@H](C(=O)N[C@@H](CC(N)=O)C(=O)NC(C)(C)C(=O)N[C@@H](CCC(=O)O)C(=O)N[C@H](C(=O)N[C@@H](CC(C)C)C(=O)N[C@@H](C)C(=O)N[C@@H](CCC(=O)O)C(=O)N[C@H](C(N)=O)C(C)C)[C@@H](C)CC)[C@@H](C)O)[C@@H](C)CC)[C@@H](C)CC)C(C)C)C(C)C [SEQ ID NO: 16] (H-[NMeI]VLSLDVPIGLLQILLEQARARAAREQAK([AEEA-AEEA-γGlu-γGlu-C20 diacid])TN[Aib]EILAEV-NH2)	0.025	10.5	4.7	11.6	4.7	reduce body weight; also recorded: prolonged dose-dependent reduction	4.4 ± 0.1	0.19 ± 0.003	0.013 ± 0.0004	44 ± 1.1	-5.6 ± 0.5	0.6 ± 0.3	91.1 ± 1.2	4.1 ± 0.1	0.19 ± 0.002	0.013 ± 0.0009	38.3 ± 0.9	-10.5 ± 0.6	-0.6 ± 0.3	79.9 ± 1.4	EC50 [4]: 0.0049 nM; HMWP formation (SEC analysis) T14-T0 (%) ([5]; pH 7.0, 40°C): -0.3%; HMWP formation (SEC analysis) T28-T0 (%) ([5]; pH 7.0, 40°C): -0.3%; HMWP formation (SEC analysis) T14-T0 (%) ([5]; pH 7.5, 40°C): 0.0%; HMWP formation (SEC analysis) T28-T0 (%) ([5]; pH 7.5, 40°C): 0.0%; HMWP formation (SEC analysis) T14-T0 (%) ([5]; pH 8.0, 40°C): -0.2%; HMWP formation (SEC analysis) T28-T0 (%) ([5]; pH 8.0, 40°C): -0.3%
CCCC[C@H](NC(=O)[C@@H](NC(=O)[C@H](CCC(=O)O)NC(=O)[C@H](C)NC(=O)[C@H](CC(N)=O)NC(=O)C(C)(C)NC(=O)[C@H](CCCCNC(=O)COCCOCCNC(=O)COCCOCCNC(=O)CC[C@H](NC(=O)CC[C@H](NC(=O)CCCCCCCCCCCCCCCCCCC(=O)O)C(=O)O)C(=O)O)NC(=O)[C@H](C)NC(=O)[C@H](CCC(N)=O)NC(=O)[C@H](CCC(=O)O)NC(=O)[C@H](CCCNC(=N)N)NC(=O)[C@H](C)NC(=O)[C@H](C)NC(=O)[C@H](CCCNC(=N)N)NC(=O)[C@H](C)NC(=O)[C@H](CCCNC(=N)N)NC(=O)[C@H](C)NC(=O)[C@H](CCC(N)=O)NC(=O)[C@H](CO)NC(=O)[C@H](CC(C)C)NC(=O)[C@H](CC(C)C)NC(=O)[C@@H](NC(=O)[C@H](CCC(N)=O)NC(=O)[C@H](CC(C)C)NC(=O)[C@H](CC(C)C)NC(=O)CNC(=O)[C@@H](NC(=O)[C@@H]1CCCN1C(=O)[C@@H](NC(=O)[C@H](CC(=O)O)NC(=O)[C@H](CC(C)C)NC(=O)[C@H](CO)NC(=O)[C@H](CC(C)C)NC(=O)[C@@H](NC(=O)[C@@H]1CCCN1)C(C)C)C(C)C)[C@@H](C)CC)[C@@H](C)CC)[C@@H](C)CC)C(=O)N[C@@H](C)C(=O)N[C@@H](CCC(=O)O)C(=O)N[C@H](C(N)=O)C(C)C [SEQ ID NO: 238] (H-PVLSLDVPIGLLQILLSQARARAAREQAK([AEEA-AEEA-γGlu-γGlu-C20 diacid])[Aib]NAEI[Nle]AEV-NH2)	0.018	5.3	4.8	8.1	4.8	prolonged dose-dependent reduction	4.3 ± 0.04	0.18 ± 0.001	0.012 ± 0.0003	39.1 ± 0.7	-9.5 ± 0.6	-0.4 ± 0.2	82.3 ± 1.2	4.4 ± 0.1	0.18 ± 0.004	0.011 ± 0.0007	37.4 ± 0.9	-10.7 ± 0.3	-0.7 ± 0.3	77.9 ± 0.7	EC50 [4]: 0.0047 nM; HMWP formation (SEC analysis) T14-T0 (%) ([5]; pH 7.0, 40°C): 0.3%; HMWP formation (SEC analysis) T28-T0 (%) ([5]; pH 7.0, 40°C): 0.5%; HMWP formation (SEC analysis) T14-T0 (%) ([5]; pH 7.5, 40°C): 0.4%; HMWP formation (SEC analysis) T28-T0 (%) ([5]; pH 7.5, 40°C): 0.4%; HMWP formation (SEC analysis) T14-T0 (%) ([5]; pH 8.0, 40°C): -0.1%; HMWP formation (SEC analysis) T28-T0 (%) ([5]; pH 8.0, 40°C): 0.2%
